Results on two molecules are retold here after article PMC8887130 (Genes & Development, 2022).

The target in experiment [1] is T1, CF II (hClp1-hPcf11) (Homo sapiens, UniProt Q92989). Briefly: […]'-dATP titration in reconstituted pre-mRNA cleavage, half-maximal activation. It counts as biochemical.
The target in experiment [2] is CF II (hClp1-hPcf11) (Homo sapiens, UniProt Q92989, R288A/R293K). In words: biochemical.
Experiment [3] concerns the target T1, CF II (hClp1-hPcf11). Briefly: biochemical.
Experiment [4] addresses CF II (hClp1-hPcf11) (Homo sapiens, UniProt Q92989, E22A). Briefly: biochemical.
The target in experiment [5] is CF II (hClp1-hPcf11) (Homo sapiens, UniProt Q92989, E22Q). Briefly: biochemical.
Chain of CF II (hClp1-hPcf11) (Homo sapiens, UniProt Q92989, E22Q) (Q92989 whole entry E22Q): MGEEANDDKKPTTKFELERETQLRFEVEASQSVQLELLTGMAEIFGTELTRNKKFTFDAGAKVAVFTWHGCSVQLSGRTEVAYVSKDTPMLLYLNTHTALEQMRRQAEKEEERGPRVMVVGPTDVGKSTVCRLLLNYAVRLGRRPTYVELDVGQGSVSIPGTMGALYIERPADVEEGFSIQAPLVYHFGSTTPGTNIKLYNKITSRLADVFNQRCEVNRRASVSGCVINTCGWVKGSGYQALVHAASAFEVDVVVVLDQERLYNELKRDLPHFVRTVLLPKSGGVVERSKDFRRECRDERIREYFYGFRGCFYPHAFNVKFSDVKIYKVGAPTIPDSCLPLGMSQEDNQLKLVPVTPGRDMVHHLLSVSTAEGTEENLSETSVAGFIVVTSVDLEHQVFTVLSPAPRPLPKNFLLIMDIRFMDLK
Chain of CF II (hClp1-hPcf11) (Homo sapiens, UniProt Q92989, E22Q) (O94913 2-1555 partner): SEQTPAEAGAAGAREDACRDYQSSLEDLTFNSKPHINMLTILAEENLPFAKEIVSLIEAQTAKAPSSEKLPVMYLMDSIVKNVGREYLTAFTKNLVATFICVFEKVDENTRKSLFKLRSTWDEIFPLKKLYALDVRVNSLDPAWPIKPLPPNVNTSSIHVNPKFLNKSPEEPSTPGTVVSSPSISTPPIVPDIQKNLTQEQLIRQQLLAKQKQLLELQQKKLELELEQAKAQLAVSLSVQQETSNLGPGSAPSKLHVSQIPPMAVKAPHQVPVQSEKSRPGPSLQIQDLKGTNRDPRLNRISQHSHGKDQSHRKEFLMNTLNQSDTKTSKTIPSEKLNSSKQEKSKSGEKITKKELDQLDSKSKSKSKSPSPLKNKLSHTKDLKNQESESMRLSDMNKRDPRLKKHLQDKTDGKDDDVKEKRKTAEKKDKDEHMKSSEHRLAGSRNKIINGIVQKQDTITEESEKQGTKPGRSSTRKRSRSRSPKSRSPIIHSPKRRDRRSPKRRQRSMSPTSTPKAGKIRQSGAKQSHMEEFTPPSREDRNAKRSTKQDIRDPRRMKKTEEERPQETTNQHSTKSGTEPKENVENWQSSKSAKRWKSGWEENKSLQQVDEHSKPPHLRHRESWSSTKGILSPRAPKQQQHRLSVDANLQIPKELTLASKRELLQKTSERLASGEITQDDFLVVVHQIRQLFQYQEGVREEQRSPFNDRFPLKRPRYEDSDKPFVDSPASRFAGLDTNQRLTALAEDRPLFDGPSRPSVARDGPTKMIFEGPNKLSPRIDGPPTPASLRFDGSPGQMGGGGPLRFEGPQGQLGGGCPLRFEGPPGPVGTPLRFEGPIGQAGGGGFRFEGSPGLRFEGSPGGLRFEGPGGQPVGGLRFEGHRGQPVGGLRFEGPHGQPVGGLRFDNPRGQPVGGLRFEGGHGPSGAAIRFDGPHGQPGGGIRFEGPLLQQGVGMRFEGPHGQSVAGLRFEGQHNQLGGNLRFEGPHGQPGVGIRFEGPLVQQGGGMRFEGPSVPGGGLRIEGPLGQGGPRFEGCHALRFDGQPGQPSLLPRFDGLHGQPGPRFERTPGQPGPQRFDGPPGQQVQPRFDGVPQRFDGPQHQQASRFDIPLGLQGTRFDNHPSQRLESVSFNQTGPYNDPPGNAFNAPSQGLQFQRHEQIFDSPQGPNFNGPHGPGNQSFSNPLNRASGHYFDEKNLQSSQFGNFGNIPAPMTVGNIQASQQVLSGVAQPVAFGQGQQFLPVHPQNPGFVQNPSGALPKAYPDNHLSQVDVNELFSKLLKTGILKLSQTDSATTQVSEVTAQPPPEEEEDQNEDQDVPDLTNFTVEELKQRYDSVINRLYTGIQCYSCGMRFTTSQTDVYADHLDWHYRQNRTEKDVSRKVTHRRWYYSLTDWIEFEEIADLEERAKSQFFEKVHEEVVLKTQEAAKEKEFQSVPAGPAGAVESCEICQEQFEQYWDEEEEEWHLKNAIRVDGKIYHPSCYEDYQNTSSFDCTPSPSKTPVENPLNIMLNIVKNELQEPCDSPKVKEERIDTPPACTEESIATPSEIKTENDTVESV

T1 sequence (Q92989 whole entry): as the sequence (Q92989 whole entry E22Q) above, with Q22E counted along it
T1 sequence (O94913 2-1555 partner): as the sequence (O94913 2-1555 partner) above
Chain of CF II (hClp1-hPcf11) (Homo sapiens, UniProt Q92989, E22A) (Q92989 whole entry E22A): as the sequence (Q92989 whole entry E22Q) above, with Q22A counted along it
Chain of CF II (hClp1-hPcf11) (Homo sapiens, UniProt Q92989, E22A) (O94913 2-1555 partner): as the sequence (O94913 2-1555 partner) above
Chain of CF II (hClp1-hPcf11) (Homo sapiens, UniProt Q92989, R288A/R293K) (Q92989 whole entry R288A/R293K): as the sequence (Q92989 whole entry E22Q) above, with Q22E, R288A, R293K counted along it
Chain of CF II (hClp1-hPcf11) (Homo sapiens, UniProt Q92989, R288A/R293K) (O94913 2-1555 partner): as the sequence (O94913 2-1555 partner) above

As a reminder, the EC50 is the midpoint of the concentration-response curve. A lower EC50 goes with an effect from little substance. In the case of `Nc1ncnc2c1ncn2[C@@H]1O[C@H](COP(=O)(O)OP(=O)(O)OP(=O)(O)O)C[C@H]1O` [3'-dATP], on CF II (hClp1-hPcf11) [1], the EC50 worked out at 46.3 ± 7.4 µM.
`Nc1ncnc2c1ncn2[C@@H]1O[C@H](COP(=O)(O)OP(=O)(O)OP(=O)(O)O)[C@@H](O)[C@H]1O` [ATP]: the 50% effective concentration (EC50) on CF II (hClp1-hPcf11) [2] was 5.7 ± 3.4 µM; at CF II (hClp1-hPcf11) [3], 0.5 ± 0.1 µM; at CF II (hClp1-hPcf11) [4], 10.9 ± 2.7 µM; at CF II (hClp1-hPcf11) [5], 95.9 ± 19.8 µM.
